Source: article PMC10490032, “From Monoamine Oxidase Inhibition to Antiproliferative Activity: New Biological Perspectives for Polyamine Analogs” (Molecules, 2023)
“Also recorded” adds a separate entry of the source.

T1: human recombinant MAO B (Homo sapiens, UniProt P27338)
T1 sequence (P27338 1-520): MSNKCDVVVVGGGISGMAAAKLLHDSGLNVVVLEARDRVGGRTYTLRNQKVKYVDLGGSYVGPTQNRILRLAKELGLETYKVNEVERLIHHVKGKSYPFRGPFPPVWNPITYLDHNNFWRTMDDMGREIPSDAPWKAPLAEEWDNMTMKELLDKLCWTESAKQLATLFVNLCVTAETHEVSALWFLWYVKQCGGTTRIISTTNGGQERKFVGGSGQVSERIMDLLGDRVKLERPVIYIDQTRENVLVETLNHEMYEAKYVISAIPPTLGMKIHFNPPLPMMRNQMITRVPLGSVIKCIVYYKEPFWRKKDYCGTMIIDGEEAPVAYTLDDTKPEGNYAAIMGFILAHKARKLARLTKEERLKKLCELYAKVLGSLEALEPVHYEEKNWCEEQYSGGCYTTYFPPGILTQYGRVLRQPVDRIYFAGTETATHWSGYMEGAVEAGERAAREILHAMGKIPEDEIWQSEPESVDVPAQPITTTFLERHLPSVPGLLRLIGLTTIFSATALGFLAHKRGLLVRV

T2: human recombinant MAO A (Homo sapiens, UniProt P21397)
T2 sequence (P21397 1-527): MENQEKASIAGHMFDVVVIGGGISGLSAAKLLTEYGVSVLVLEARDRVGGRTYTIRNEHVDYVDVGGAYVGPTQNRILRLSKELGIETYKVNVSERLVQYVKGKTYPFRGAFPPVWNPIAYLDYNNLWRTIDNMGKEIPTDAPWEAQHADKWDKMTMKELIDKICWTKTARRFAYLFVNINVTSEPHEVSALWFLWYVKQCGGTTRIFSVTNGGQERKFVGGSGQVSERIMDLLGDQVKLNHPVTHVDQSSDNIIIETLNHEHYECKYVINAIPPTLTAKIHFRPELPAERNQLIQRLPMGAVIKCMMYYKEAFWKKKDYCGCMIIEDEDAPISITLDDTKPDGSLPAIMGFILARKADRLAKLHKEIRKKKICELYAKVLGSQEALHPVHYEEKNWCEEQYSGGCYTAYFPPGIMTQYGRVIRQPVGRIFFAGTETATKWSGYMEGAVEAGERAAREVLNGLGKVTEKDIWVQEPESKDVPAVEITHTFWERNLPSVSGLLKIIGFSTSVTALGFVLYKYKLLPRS

T3: human VAP-1 (Homo sapiens, UniProt Q16853)
T3 sequence (Q16853 1-763): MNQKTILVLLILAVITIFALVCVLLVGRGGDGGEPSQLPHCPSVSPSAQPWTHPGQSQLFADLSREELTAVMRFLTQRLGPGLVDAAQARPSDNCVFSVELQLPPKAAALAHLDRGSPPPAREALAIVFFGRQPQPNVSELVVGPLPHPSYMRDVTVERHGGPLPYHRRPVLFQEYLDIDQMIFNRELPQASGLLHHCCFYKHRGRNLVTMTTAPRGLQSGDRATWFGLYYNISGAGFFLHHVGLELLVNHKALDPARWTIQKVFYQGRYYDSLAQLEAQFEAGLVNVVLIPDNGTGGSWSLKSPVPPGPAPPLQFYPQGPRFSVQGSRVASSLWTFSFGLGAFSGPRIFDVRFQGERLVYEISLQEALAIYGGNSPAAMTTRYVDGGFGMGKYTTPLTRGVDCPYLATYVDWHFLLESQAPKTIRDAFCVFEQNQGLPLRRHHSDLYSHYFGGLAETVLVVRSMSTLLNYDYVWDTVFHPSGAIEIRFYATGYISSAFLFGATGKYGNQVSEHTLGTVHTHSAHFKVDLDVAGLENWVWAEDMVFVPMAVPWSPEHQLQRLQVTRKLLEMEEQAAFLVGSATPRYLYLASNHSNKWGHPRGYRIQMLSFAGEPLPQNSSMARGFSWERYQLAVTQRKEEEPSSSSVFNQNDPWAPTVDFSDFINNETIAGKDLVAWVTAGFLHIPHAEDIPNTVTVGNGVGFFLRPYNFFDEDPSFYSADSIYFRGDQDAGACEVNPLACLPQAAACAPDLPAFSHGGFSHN


Key:
MAO = assay: Test of compounds as potential MAO substrates, Amplex Red/horseradish peroxidase coupled method; type: biochemical, human; conditions: up to a 50 μM concentration
Method: Before evaluating the potential MAO inhibitory capability of derivatives 2–7, kinetic experiments were performed to assay their behaviors as potential MAO substrates by using the Amplex Red/horseradish peroxidase coupled method, which detects the hydrogen peroxide produced by the amine oxidase enzyme activity in the presence of an amine substrate. […] Thus, for the subsequent inhibition studies, an assay method that used kynuramine as the MAO substrate and detected the production of 4-hydroxyquinoline (formed from the aldehyde reaction product) was applied.
Except for compound 4, no significant interference of the other polyamine analogs with the preliminary calibration curves was observed. […] The evaluations of the effects of compounds 1–7 on the MAO activity were performed by using a kynuramine assay due to the interferences of compound 4 with the Amplex Red method.

[1] = test system: LN-229 glioblastoma cell line; assay: Inhibition growth assay, Trypan blue exclusion; type: cell-based, human; conditions: Homo sapiens, LN-229, 48 h, LN-229, 48 h of incubation; mean ± SD of five independent experiments in duplicate
Description: On this basis, we investigated the antiproliferative effect of compounds 1–7 on LN-229, a human glioblastoma cell line. Compound 1 and the well-known antitumor drug doxorubicin were taken as references. […] The data in Table 3 support the lack of cytotoxicity of compound 1.
The LN-229 (human glioblastoma) was purchased from the American Type Culture Collection (ATCC) and cultured in DMEM (D2902, Sigma Chemical Co., St. Louis, MO, USA) supplemented with 3.5 g/L of glucose and 5% heat-inactivated fetal calf serum (FCS) (F7524, Sigma Chemical Co.), respectively. A total of 100 U/mL of penicillin, 100 μg/mL of streptomycin, and 0.25 μg/mL of amphotericin B (Sigma Chemical Co.) were added to the medium. Cells were cultured at 37 °C in a humidified atmosphere incubator containing 5% carbon dioxide in air.
Cells (3–6 × 10^4/well) were seeded into a 24-well cell culture plate; after 24 h, different concentrations of the test compounds or reference drug were added. After 48 h of incubation in standard conditions, the cell viability was determined by using a Trypan blue exclusion assay. Briefly, cells were detached by using a […] and 0.3 mM EDTA solution in PBS and stained with 0.1% Trypan blue solution in PBS. Unstained viable cells were immediately counted in a Burker chamber. The percentage of viable cells was calculated with respect to the untreated control culture. […] The goodness of the fit was expressed by the r^2 coefficient, and the best fit report included the analysis of variance corrected for the mean of the observations with the p values (p < 0.005 for all the tested compounds). Data are the means ± SD of at least five independent experiments in duplicate.

human recombinant MAO B [2] = biological target: T1, human recombinant MAO B; parameters: purchased Merk s.r.l; (Italy); host or cells: baculovirus-infected BT1 cells; method as in PMID 21858471; conditions: previous study ref 35; cited from earlier work
human recombinant MAO B [3] = biological target: T1, human recombinant MAO B; assay: MAO B inhibition, kynuramine assay (4-hydroxyquinoline fluorescence); conditions: MAO B Ki, human recombinant MAO B; kynuramine 10 μM; from slope of Vo/VI vs compound concentration (1.25–40 μM); mean ± S.D.
human recombinant MAO A = biological target: T2, human recombinant MAO A; assay: MAO A inhibition, kynuramine assay (4-hydroxyquinoline fluorescence); conditions: MAO A Ki, human recombinant MAO A; kynuramine 10 μM; from slope of Vo/VI vs compound concentration (1.25–40 μM); mean ± S.D.
human VAP-1 [4] = biological target: T3, human VAP-1; parameters: Biothie Therapies Cor; (Turku, Finland), gift; method as in PMID 21858471, PMID 30829081; conditions: previous studies ref 35, 40; cited from earlier work
murine SMOX [5] = biological target: T4, murine SMOX (Mus musculus, UniProt Q99K82); parameters: made in house; host or cells: E. coli BL21 DE3; conditions: previous studies ref 35, 40; cited from earlier work
murine SMOX [6] = biological target: T4, murine SMOX; assay: SMOX amine oxidase activity, Amplex Red/horseradish peroxidase assay, spermine as substrate; conditions: up to a 50 μM concentration
human VAP-1 [7] = biological target: T3, human VAP-1; assay: VAP-1 amine oxidase activity, Amplex Red/horseradish peroxidase assay, benzylamine as substrate; conditions: up to a 50 μM concentration
[8] = substrate: NCCC(=O)c1ccccc1N; assay: purified protein, by the assay type; conditions: other: substrate, human recombinant MAO A; pH 7.4; 37.0 °C

T4 sequence (Q99K82 whole entry): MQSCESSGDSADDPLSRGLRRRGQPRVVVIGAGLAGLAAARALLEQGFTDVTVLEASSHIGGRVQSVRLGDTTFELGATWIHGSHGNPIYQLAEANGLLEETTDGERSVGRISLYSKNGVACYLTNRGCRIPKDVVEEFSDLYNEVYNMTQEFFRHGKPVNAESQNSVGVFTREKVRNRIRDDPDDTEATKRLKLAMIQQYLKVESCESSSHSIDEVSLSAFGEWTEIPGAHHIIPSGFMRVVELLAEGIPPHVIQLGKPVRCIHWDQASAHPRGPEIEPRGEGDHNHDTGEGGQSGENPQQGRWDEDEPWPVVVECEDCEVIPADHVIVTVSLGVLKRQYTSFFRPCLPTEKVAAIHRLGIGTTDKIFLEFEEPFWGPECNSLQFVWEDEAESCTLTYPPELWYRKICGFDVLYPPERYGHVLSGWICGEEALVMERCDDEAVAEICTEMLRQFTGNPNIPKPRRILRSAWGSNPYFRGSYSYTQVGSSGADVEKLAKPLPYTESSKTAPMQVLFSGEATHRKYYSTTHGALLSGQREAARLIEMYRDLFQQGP

Row | Behaviour as MAO substrate (MAO) | GI50 [1] [µM] | Ki (human recombinant MAO B [3]) [µM] | Ki (human recombinant MAO A) [µM] | Behaviour as SMOX substrate (murine SMOX [6]) | Behaviour as VAP-1 substrate (human VAP-1 [7]) | Molecule | Mode of inhibition of MAO B (human recombinant MAO B [2]) | Inhibition of VAP-1 (human VAP-1 [4]) | Inhibition of SMOX (murine SMOX [5]) | Km [8] [µM]
1 | did not act as substrates | 4.6 ± 1.1 | 330 ± 30 | 247 ± 42 |  |  | COc1ccccc1CNCCCCCCN1CCC(CCC2CCN(CCCCCCNCc3ccccc3OC)CC2)CC1 [Compound 2] | mainly competitive/mixed; also recorded: reversible mixed-type | poor inhibitor | poor inhibitor | 
2 | did not act as substrates | 2.2 ± 0.9 | 19 ± 2 | 70 ± 7 | not substrates | not substrates | COc1ccccc1CNCCCCCC(=O)N1CCC(CCC2CCN(C(=O)CCCCCNCc3ccccc3OC)CC2)CC1 [Compound 3] |  |  |  | 
3 |  |  |  |  |  |  | human recombinant MAO A (Homo sapiens) (protein) MENQEKASIAGHMFDVVVIGGGISGLSAAKLLTEYGVSVLVLEARDRVGGRTYTIRNEHVDYVDVGGAYVGPTQNRILRLSKELGIETYKVNVSERLVQYVKGKTYPFRGAFPPVWNPIAYLDYNNLWRTIDNMGKEIPTDAPWEAQHADKWDKMTMKELIDKICWTKTARRFAYLFVNINVTSEPHEVSALWFLWYVKQCGGTTRIFSVTNGGQERKFVGGSGQVSERIMDLLGDQVKLNHPVTHVDQSSDNIIIETLNHEHYECKYVINAIPPTLTAKIHFRPELPAERNQLIQRLPMGAVIKCMMYYKEAFWKKKDYCGCMIIEDEDAPISITLDDTKPDGSLPAIMGFILARKADRLAKLHKEIRKKKICELYAKVLGSQEALHPVHYEEKNWCEEQYSGGCYTAYFPPGIMTQYGRVIRQPVGRIFFAGTETATKWSGYMEGAVEAGERAAREVLNGLGKVTEKDIWVQEPESKDVPAVEITHTFWERNLPSVSGLLKIIGFSTSVTALGFVLYKYKLLPRS |  |  |  | 32 ± 11
